Assay results from patent US20130288897A1, “SYNERGISTIC PESTICIDAL COMPOSITIONS” (Dow AgroSciences LLC, priority 2012, published 2013).
Where “and” joins values, the source holds several entries; their conditions need not be identical. Equal values may be shown once.

What was measured:
Format in all cases: in vivo
[1] = system: cotton aphid (CA) Aphis gossypii; test: Cotton aphid track-sprayer test on cotton: Compound A or imidacloprid with Glyphomax Plus (glyphosate) and AMS (Example XV)
Method: (§1) Glyphosate resistant cotton plants (Gossypium hirsutum, cv ‘DP493’) were trimmed to 1 true leaf and infested with mixed stages of cotton aphid (CA) Aphis gossypii 24 h prior to application. Mixed developmental stage CA were infested onto the upper surface of each treated leaf by transferring infested foliage from an insectary colony. Each plant was infested with approximately equal numbers of CA based on visual estimation of aphid density on the infested material. Infested plants were held in the growth chamber (L:D 16:8 and 25° C.). Glyphosate (Glyphomax Plus, Dow AgroSciences, LLC, Indianapolis, Ind.) was mixed with water at a rate equivalent to 32 oz/Ac/20 gallons. […] High rate Compound A concentrations were created by diluting Compound A technical material with acetone to achieve a 10 ppm solution. […] When applied through a track sprayer calibrated to 200 L/Ha these concentrations generated use rates of 0.2, 0.04 and 0.008 g/Ha. […] Nozzle height above the canopy was held constant at ca. 30 cm. Plants were evaluated after 3 days from the time of infestation by counting all live cotton aphids on each plant.
For the purposes of this experiment, the compositions having lower rates of the insecticide were not analyzed. Percent control for all treatments was calculated using the rep average for the untreated plants. […] For all tests, measured efficacy (% Control) data were compared to calculated Colby values (Colby, S. R. 1967. Calculating Synergistic and Antagonistic Responses of Herbicide Combinations. Weeds 15:20-22) using a 2 sided T-test (Minitab). […] The formula used to calculate the Colby value for mixtures of Compound A and either herbicide or AMS was:
The formula was adapted for compositions including Compound A, herbicide and AMS as follows: […]

[2] = system: cotton aphid (CA) Aphis gossypii; test: Cotton aphid track-sprayer test on cotton: Compound A or imidacloprid with Durango (glyphosate) or Durango Blank and AMS (Example XVI); conditions: for % Control (Negatives to zero) Ave / % control Ave / Colbv predicted values Ave: average of 5 reps
Method: as §1, with “(Durango®,” for “(Glyphomax Plus,”, “15 ml/L (1.2 qt/Ac). […] A glyphosate free formulation of Durango® was prepared using these same mixing instructions.” for “32 oz/Ac/20 gallons.”, “When applied through a track sprayer calibrated to 200 L/Ha these concentrations generated use rates of 0.2, 0.04 and 0.008 g/Ha.” left out
[…] Percent control for all treatments was calculated using the rep average for the untreated plants.

[3] = system: cotton aphid (CA) Aphis gossypii; test: Cotton aphid track-sprayer test on cotton: Compound A or imidacloprid with glufosinate (Liberty) and AMS (Example XVII); conditions: for Colby Predicted Values Ave: combination with glufosinate
Method: as §1, with “Glufosinate (Liberty®, Bayer CropScience, Monheim am Rhein, Germany)” for “Glyphosate (Glyphomax Plus, Dow AgroSciences, LLC, Indianapolis, Ind.)”, “5 ml/L (0.4 qt/Ac).” for “32 oz/Ac/20 gallons.”, “When applied through a track sprayer calibrated to 200 L/Ha these concentrations generated use rates of 0.2, 0.04 and 0.008 g/Ha.” left out
TABLE 6 contains the calculated Colby values for combinations of treatments as well as the outcome of statistical evaluations between predicted (Colby) and actual measured values. These T-test statistics were only calculated for the 0.2 and 0.05 g/Ha rates. […] These same trends were apparent when Compound A was applied with both glufosinate and AMS.

[4] = 0.0125 g insecticide/Ha with Durango 0.015 ml/ml + AMS 18 g/L
[5] = 0.0125 g insecticide/Ha with Durango 0.015 ml/ml
[6] = 0.0125 g insecticide/Ha with Durango Blank 0.015 ml/ml + AMS 18 g/L
[7] = 0.0125 g insecticide/Ha with Durango Blank 0.015 ml/ml
[8] = 0.05 g insecticide/Ha with Durango 0.015 ml/ml + AMS 18 g/L
[9] = 0.05 g insecticide/Ha with Durango 0.015 ml/ml
[10] = 0.05 g insecticide/Ha with Durango Blank 0.015 ml/ml + AMS 18 g/L
[11] = 0.05 g insecticide/Ha with Durango Blank 0.015 ml/ml
[12] = 0.2 g insecticide/Ha with Durango 0.015 ml/ml + AMS 18 g/L
[13] = 0.2 g insecticide/Ha with Durango 0.015 ml/ml
[14] = 0.2 g insecticide/Ha with Durango Blank 0.015 ml/ml + AMS 18 g/L
[15] = 0.2 g insecticide/Ha with Durango Blank 0.015 ml/ml

Question: What does the source list for O=[N+]([O-])NC1=NCCN1Cc1ccc(Cl)nc1 [Imidacloprid, imidacloprid, reference compound]?
Answer: synergy assessment (measured control vs Colby values) ([1]; insecticide with AMS and herbicide (Glyphomax Plus)): not improved compared to imidacloprid alone; synergy assessment (measured control vs Colby values) ([1]; insecticide with the herbicide (Glyphomax Plus)): not present; % Control (Negatives to zero) Ave [2, 4]: 26.3%; % control Ave [2, 4]: 26.3%; Colbv predicted values Ave [2, 4]: 42.0; % Control (Negatives to zero) Ave [2, 5]: 17.2%; % control Ave [2, 5]: −0.3%; Colbv predicted values Ave [2, 5]: 35.1; % Control (Negatives to zero) Ave [2, 6]: 24.7%; % control Ave [2, 6]: −1.1%; Colbv predicted values Ave [2, 6]: 51.7; % Control (Negatives to zero) Ave [2, 7]: 15.1%; % control Ave [2, 7]: −17.6%; Colbv predicted values Ave [2, 7]: 33.8; % control Ave ([2]; 0.0125 g insecticide/Ha, no herbicide, no AMS): 15.1%; CA Counts ([2]; 0.05 g insecticide/Ha with Durango 0.015 ml/ml + AMS 18 g/L, Rep 1-5, listed as lmidacloprid): 49 and 50 and 71 and 64 and 54; % Control (Negatives to zero) Ave [2, 8]: 37.3%; % control Ave [2, 8]: 37.3%; Colbv predicted values Ave [2, 8]: 46.5; % Control (Negatives to zero) Ave [2, 9]: 25.4%; % control Ave [2, 9]: 21.8%; Colbv predicted values Ave [2, 9]: 38.2; CA Counts ([2]; 0.05 g insecticide/Ha with Durango Blank 0.015 ml/ml + AMS 18 g/L, Rep 1-5, listed as lmidacloprid): 82 and 81 and 108 and 73 and 95; % Control (Negatives to zero) Ave [2, 10]: 11.2%; % control Ave [2, 10]: 5.6%; Colbv predicted values Ave [2, 10]: 58.0; % Control (Negatives to zero) Ave [2, 11]: 24.8%; % control Ave [2, 11]: 20.1%; Colbv predicted values Ave [2, 11]: 41.2; % control Ave ([2]; 0.05 g insecticide/Ha, no herbicide, no AMS): 29.9%; Colbv predicted values ([2]; 0.2 g insecticide/Ha with Durango 0.015 ml/ml + AMS 18 g/L, Rep 1-5, listed as lmidacloprid): 88.5 and 68.2 and 93.5 and 56.2 and 48.8; % Control (Negatives to zero) Ave [2, 12]: 30.8%; % control Ave [2, 12]: 23.9%; Colbv predicted values Ave [2, 12]: 71.0; Colbv predicted values ([2]; 0.2 g insecticide/Ha with Durango 0.015 ml/ml, Rep 1-5, expected additive control, listed as lmidacloprid): 74.5 and 68.6 and 84.8 and 56.2 and 48.8; % Control (Negatives to zero) Ave [2, 13]: 45.5%; % control Ave [2, 13]: 45.5%; Colbv predicted values Ave [2, 13]: 66.6; Colbv predicted values ([2]; 0.2 g insecticide/Ha with Durango Blank 0.015 ml/ml + AMS 18 g/L, Rep 1-5, listed as lmidacloprid): 96.1 and 88.7 and 75.9 and 68.4 and 48.8; % Control (Negatives to zero) Ave [2, 14]: 32.2%; % control Ave [2, 14]: 27.3%; Colbv predicted values Ave [2, 14]: 75.2; Colbv predicted values ([2]; 0.2 g insecticide/Ha with Durango Blank 0.015 ml/ml, Rep 1-5, listed as lmidacloprid): 84.2 and 67.7 and 71.9 and 56.2 and 48.8; % Control (Negatives to zero) Ave [2, 15]: 55.3%; % control Ave [2, 15]: 55.3%; Colbv predicted values Ave [2, 15]: 65.7; synergy assessment (measured vs predicted additive Colby values) ([2]; 0.2 g insecticide/Ha, co-applied with AMS and Durango): antagonism of imidacloprid activity; CA Counts ([2]; 0.2 g insecticide/Ha, no herbicide, no AMS, Rep 1-5, live aphids per plant after 3 days, listed as lmidacloprid): 30 and 51 and 44 and 32 and 38; % control ([2]; 0.2 g insecticide/Ha, no herbicide, no AMS, Rep 1-5, vs rep average of untreated plants, listed as lmidacloprid): 74.5% and 50.4% and 61.1% and 56.2% and 48.8%; % control Ave ([2]; 0.2 g insecticide/Ha, no herbicide, no AMS): 58.2%; synergy assessment (measured vs predicted additive Colby values) ([2]; 0.2 g insecticide/Ha, only Durango mixed): no effects; synergy assessment (measured vs predicted additive Colby values) ([2]; 0.2 g insecticide/Ha, with Durango blank and AMS): antagonistic effect; synergy assessment (measured vs predicted additive Colby values) ([2]; 0.2 g insecticide/Ha, with Durango blank formulation): no significant difference between predicted and measured activity; % control AVE ([3]; 0.0125 g In./Ha + glufosinate 0.005 ml/ml): 66.5%; Colby Predicted Values Ave ([3]; 0.0125 g In./Ha): 53.6; % control AVE ([3]; 0.05 g In./Ha + glufosinate 0.005 ml/ml): 51.2%; Colby Predicted Values Ave ([3]; 0.05 g In./Ha): 53.8; % control AVE ([3]; 0.2 g In./Ha + glufosinate 0.005 ml/ml): 58.2%; Colby Predicted Values Ave ([3]; 0.2 g In./Ha): 59.6; synergy assessment (measured vs predicted Colby values) ([3]; insecticide applied together with glufosinate): not different from the calculated additive values; synergy assessment (measured vs predicted Colby values) ([3]; insecticide with glufosinate and AMS): No evidence of synergy
